Experimental data reported in US9125904B1, “Biphenyl imidazoles and related compounds useful for treating HCV infections” (ACHILLION PHARMACEUTICALS, INC., priority 2010, dated 2015).
Where two headings read alike, the source gives them in different places.

Tested on: HCV replicon
Assay: HCV replicon replication assay (NPT ELISA)
Type: cell-based
Details: Hepatitis C virus
Protocol: Compounds claimed herein are tested for the ability to inhibit viral replication of the Hepatitis C replicon in cultured cells in which the HCV replicon construct has been incorporated. The HCV replicon system was described by Bartenschlager, et. al (Science, 285, pp. 110-113 (1999)). The replicon system is predictive of in vivo anti-HCV activity; compounds that are active in humans uniformly evidence activity in the replicon assay.
In this assay HCV replicon containing cells are treated with different concentrations of the test compound to ascertain the ability of the test compound to suppress replication of the HCV replicon. As a positive control, HCV replicon-containing cells are treated with different concentrations of interferon alpha, a known inhibitor of HCV replication. The replicon assay system includes Neomycin Phosphotransferase (NPT) as a component of the replicon itself in order to detect the transcription of replicon gene products in the host cell. Cells in which the HCV replicon is actively replicating have high levels of NPT; the level of NPT is proportional to HCV replication. […] The NPT level of each sample is measured using a captured ELISA.
A protocol for testing compounds for the ability to inhibit viral replication of the Hepatitis C replicon cultured cells in which the replicon construct has been incorporated, follows.
The HCV replicon contains, 5′-3′, the HCV-IRES, the neomycin phosphotransferase (neo) gene, the IRES of encephalomyocarditis virus, which directs translation of HCV sequences NS3 to NS5B, and the 3′-NTR. The sequence of the HCV replicon has been deposited in GenBank (Accession no. AJ242652).
The replicon is transfected into Huh-7 cells using standard methods such as electroporation.
The equipment and materials include, but are not limited to, Huh-7 HCV replicon-containing cells, maintenance media (DMEM (Dulbecco's modified Eagle media) supplemented with 10% FBS, L-glutamine, non-essential amino acids, penicillin (100 units/ml), streptomycin (100 micrograms/ml), and 500 micrograms/ml of Geneticin (G418), screening media (DMEM supplemented with 10% FBS, L-glutamine, non-essential amino acids, penicillin (100 units/ml) and streptomycin (100 micrograms/ml)), 96 well tissue culture plates (flat bottom), 96 well plates (U bottom for drug dilution), Interferon alpha for positive control, fixation reagent (such as methanol: acetone), primary antibody (rabbit anti-NPTII), secondary antibody: Eu-N1 1, and enhancement solution.
HCV replicon-containing cells support high levels of viral RNA replicon replication when their density is suitable. Over-confluency causes decreased viral RNA replication. Therefore, cells must be kept growing in log phase in the presence of 500 micrograms/ml of G418. Generally, cells should be passed twice a week at 1: 4-6 dilution. Cell maintenance is conducted as follows:
HCV replicon-containing cells are examined under a microscope to ensure that cells growing well. Cells are rinsed once with PBS and 2 ml trypsin is added. The cell/trypsin mixture is incubated at 37° C. in a CO2 incubator for 3-5 minutes. After incubation 10 ml of complete media is added to stop the trypsinization reaction. Cells are blown gently, put into a 15 ml tube, and spun at 1200 rpm for 4 minutes. The trypsin/medium solution is removed. Medium (5 ml) is added and the cells are mixed carefully. The cells are counted.
The cells are then seeded onto 96-well plates at a density of 6000-7500 cells/100 microliters/well (6−7.5×10^5 cells/10 ml/plate). The plates are then incubated at 37° C. in a 5% CO2 incubator.
Cells are examined under a microscope approximated 24 hours after seeding and prior to adding drugs. If counting and dilution were performed correctly, cells are 60-70% confluent and nearly all cells should attach and spread evenly in the well.
HCV replicon-containing cells are rinsed with once PBS once; 2 mls of trypsin are then added. Cells are incubated at 37° C. in a 5% CO2 incubator for 3-5 minutes. […]

[1] = 72 h, Huh-7 HCV replicon-containing cells, three days, class symbols, read-out: EC50

Compound	EC50 [1] [nM]	other results
COC(=O)N[C@H](C(=O)N1C2CC(F)C(C2)C1c1ncc(-c2ccc(-c3ccc(-c4cnc([C@@H]5CCCN5C(=O)[C@@H](NC(=O)OC)C(C)C)[nH]4)cc3)cc2)[nH]1)C(C)C (some centres unmarked) [Compound 73]	< 5	
CCCS(=O)(=O)N1CCN(Cc2ccc(NC(=O)c3ccc(-c4ccc(-c5c[nH]c([C@@H]6CCCN6C(=O)[C@@H](NC(=O)OC)C(C)C)n5)cc4)cc3)cc2)CC1 [Compound 19, methyl (S)-3-methyl-1-oxo-1-((S)-2-(4-(4′-(4-((4-(propylsulfonyl)piperazin-1-yl)methyl)phenylcarbamoyl)biphenyl-4-yl)-1H-imidazol-2-yl)pyrrolidin-1-yl)butan-2-ylcarbamate]	< 50	
COC(=O)N[C@H](C(=O)N1C2CC(CN(C)C2)C1c1nc(-c2ccc(-c3ccc(-c4cnc([C@@H]5CCCN5C(=O)[C@@H](NC(=O)OC)C(C)C)[nH]4)cc3)cc2)c[nH]1)C(C)C (some centres unmarked) [Compound 52]	< 50	
CCCS(=O)(=O)N1CCN(Cc2ccc(NC(=O)c3ccc(-c4ccc(-c5c[nH]c([C@@H]6CCCN6C(=O)OC(C)(C)C)n5)cc4)cc3)cc2)CC1 [Compound 18, (S)-tert-butyl 2-(4-(4′-(4-((4-(propylsulfonyl)piperazin-1-yl)methyl)phenylcarbamoyl)biphenyl-4-yl)-1H-imidazol-2-yl)pyrrolidine-1-carboxylate]	< 50	
CCCS(=O)(=O)N1CCN(Cc2ccc(C(=O)Nc3ccc(-c4ccc(-c5c[nH]c([C@@H]6CCCN6C(=O)[C@@H](NC(=O)OC)C(C)C)n5)cc4)cc3)cc2)CC1 [Compound 22, methyl (S)-3-methyl-1-oxo-1-((S)-2-(4-(4′-(4-((4-(propylsulfonyl)piperazin-1-yl)methyl)benzamido)biphenyl-4-yl)-1H-imidazol-2-yl)pyrrolidin-1-yl)butan-2-ylcarbamate]	< 5	
CC(C)(C)OC(=O)N1c2ccccc2C[C@H]1c1nc(-c2ccc(-c3ccc(-c4cnc([C@@H]5Cc6ccccc6N5C(=O)OC(C)(C)C)[nH]4)cc3)cc2)c[nH]1 [Compound 27, (2S,2′S)-tert-butyl 2,2′-(5,5′-(biphenyl-4,4′-diyl)bis(1H-imidazole-5,2-diyl))diindoline-1-carboxylate]	< 50	
COC(=O)N[C@H](C(=O)N1CCC[C@H]1c1ncc(-c2ccc(-c3ccc(-c4c[nH]c([C@@H]5C6CC([C@H](O)C6)N5C(=O)[C@@H](NC(=O)OC)C(C)C)n4)cc3)cc2)[nH]1)C(C)C (some centres unmarked) [Compound 45]	< 50	
COC(=O)N[C@H](C(=O)N1C2CCC(C2)[C@H]1c1nc(-c2ccc(/C=C/c3ccc(-c4cnc([C@@H]5C6CCC(C6)N5C(=O)[C@@H](NC(=O)OC)C(C)C)[nH]4)cc3)cc2)c[nH]1)C(C)C (some centres unmarked) [Compound 72]	< 5	
COC(=O)NC(C(=O)N1CCC[C@H]1c1ncc(-c2ccc(-c3ccc(-c4c[nH]c([C@@H]5Cc6ccccc6N5C(=O)C(NC(=O)OC)C(C)C)n4)cc3)cc2)[nH]1)C(C)C (some centres unmarked) [Compound 35]	< 5	
COC(=O)N[C@H](C(=O)N1CCC[C@H]1c1ncc(-c2cc3cc(-c4ccc(-c5cnc([C@@H]6C7CCC(C7)N6C(=O)[C@@H](NC(=O)OC)C(C)C)[nH]5)cc4)ccc3o2)[nH]1)C(C)C (some centres unmarked) [Compound 71]	< 5	
CNC(=O)C[C@H](C(=O)N1CCC[C@H]1c1ncc(-c2ccc3c(c2)Cc2cc(-c4cnc([C@@H]5CCCN5C(=O)[C@@H](CC(=O)NC)C(C)(C)C)[nH]4)ccc2-3)[nH]1)C(C)(C)C [Compound 37, (3S,3′S)-3,3′-(2S,2′S)-2,2′-(5,5′-(9H-fluorene-2,7-diyl)bis(1H-imidazole-5,2-diyl))bis(pyrrolidine-2,1-diyl)bis(oxomethylene)bis(N,4,4-trimethylpentanamide)]		EC50 (Huh-7, 72 h): > 1 nM
COC(=O)N[C@H](C(=O)N1C2CCC(C2)[C@H]1c1nc(-c2ccc3c(c2)Cc2cc(-c4c[nH]c([C@@H]5C6CCC(C6)N5C(=O)[C@@H](NC(=O)OC)C(C)C)n4)ccc2-3)c[nH]1)C(C)C [Compound 75]	< 5	
CCCS(=O)(=O)N1CCN(Cc2ccc(NC(=O)c3ccc(-c4ccc(C(=O)Nc5ccc(CN6CCN(S(=O)(=O)CCC)CC6)cc5)cc4)cc3)cc2)CC1 [Compound 17, N4,N4′-bis(4-((4-(propylsulfonyl)piperazin-1-yl)methyl)phenyl)biphenyl-4,4′-dicarboxamide]	< 50	
COC(=O)NC(C(=O)N1C2CCC(C2)C1c1nc(-c2ccc(-c3ccc(-c4c[nH]c(C5C=CCN5C(=O)[C@@H](NC(=O)OC)C(C)C)n4)cc3)cc2)c[nH]1)C(C)C (some centres unmarked) [Compound 62]	< 5	
COC(=O)N[C@H](C(=O)N1CCCCCC1c1nc(-c2ccc(-c3ccc(-c4c[nH]c(C5C6CCC(C6)N5C(=O)[C@@H](NC(=O)OC)C(C)C)n4)cc3)cc2)c[nH]1)C(C)C (some centres unmarked) [Compound 63]	< 5	
CC(C)(C)OC(=O)N1CC=CC1c1nc(-c2ccc(-c3ccc(-c4c[nH]c([C@@H]5C=CCN5C(=O)OC(C)(C)C)n4)cc3)cc2)c[nH]1 (stereo partly drawn) [Compound 20, (2R,2′R)-tert-butyl 2,2′-(4,4′-(biphenyl-4,4′-diyl)bis(1H-imidazole-4,2-diyl))bis(2,5-dihydro-1H-pyrrole-1-carboxylate)]	< 100	
COC(=O)N[C@@H](C(=O)N1c2ccccc2C[C@H]1c1nc(-c2ccc(-c3ccc(-c4cnc([C@@H]5Cc6ccccc6N5)[nH]4)cc3)cc2)c[nH]1)C(C)C [Compound 26, methyl (R)-1-((S)-2-(4-(4′-(2-((S)-indolin-2-yl)-1H-imidazol-5-yl)biphenyl-4-yl)-1H-imidazol-2-yl)indolin-1-yl)-3-methyl-1-oxobutan-2-ylcarbamate]	< 5	
COC(=O)N[C@H](C(=O)N1CCCCCC1c1nc(-c2ccc(-c3ccc(-c4c[nH]c(C5CCCN5C(=O)[C@@H](NC(=O)OC)C(C)C)n4)cc3)cc2)c[nH]1)C(C)C (some centres unmarked) [Compound 59]	< 5	
COC(=O)N[C@H](C(=O)N1C2CCC(C2)[C@H]1c1ncc(-c2ccc(Br)cc2)[nH]1)C(C)C (stereo partly drawn) [Compound 54, methyl (2S)-1-((3S)-3-(5-(4-bromophenyl)-1H-imidazol-2-yl)-2-azabicyclo[2.2.1]heptan-2-yl)-3-methyl-1-oxobutan-2-ylcarbamate]		EC50 (72 h, Huh-7 HCV replicon-containing cells, three days, numeric cells, read-out: EC50): < 100 nM
COC(=O)N[C@H](C(=O)N1C2CCC(C2)[C@H]1c1nc(-c2ccc(-c3ccc(-c4c[nH]c([C@@H]5C6CCC(C6)N5C(=O)[C@@H](NC(=O)OC)C(C)C)n4)cc3)cc2)c[nH]1)C(C)C [Compound 24, dimethyl (2S,2′S)-1,1′-((3S,3′S)-3,3′-(4,4′-(biphenyl-4,4'-diyl)bis(1H-imidazole-4,2-diyl))bis(2-azabicyclo[2.2.1]heptane-3,2-diyl))bis(3-methyl-1-oxobutane-2,1-diyl)dicarbamate]	< 5	
COC(=O)N[C@H](C(=O)N1CCc2ccc(NC(=O)c3ccc(-c4ccc(-c5cnc([C@@H]6CCCN6C(=O)[C@@H](NC(=O)OC)C(C)C)[nH]5)cc4)cc3)cc21)C(C)C [Compound 41]	< 5	
COC(=O)N[C@H](C(=O)N1CCC[C@H]1c1ncc(-c2ccc(-c3ccc(-c4c[nH]c([C@@H]5C6CCC(C6)N5C(=O)[C@@H](NC(=O)OC)C(C)C)n4)cc3)cc2)[nH]1)C(C)C (some centres unmarked) [Compound 36]	< 50	
COC(=O)N[C@H]1CC[C@H]2CC[C@@H](c3ncc(-c4ccc(-c5ccc(-c6cnc([C@@H]7CCCN7C(=O)[C@@H](NC(=O)OC)C(C)C)[nH]6)cc5)cc4)[nH]3)N2C1=O [Compound 55]	< 50	
